In paper PMC8228141, “Antiprotozoal Nor-Triterpene Alkaloids from Buxus sempervirens L” (Antibiotics, 2021):
Read-outs that look alike come from different tables or passages of the source.

Assays:
[1] = tested on: Plasmodium falciparum (Pf) (intraerythrocytic forms, NF54 strain); experiment: In vitro antiplasmodial activity; type: cell-based; details: NF54 strain; for Pf IC50: mean of n = 2 (fluctuation range) or * n = 3 (SD); for IC50: read-out: Pf IC50 (in parentheses) (converted)
Description: (§1) After isolation, all alkaloids were tested in vitro for antiplasmodial and antitrypanosomal activity against Plasmodium falciparum (Pf) and Trypanosoma brucei rhodesiense (Tbr). Furthermore, to assess their selectivity against the parasites, cytotoxicity against L6 rat skeletal myoblasts, as mammalian control cells, was tested (Table 4).
(§2) In vitro assays for the bioactivity of the isolated Buxus-alkaloids against Tbr (bloodstream trypomastigotes, STIB 900 strain), Trypanosoma cruzi (Tc) (amastigotes, Tulahuen C4 strain), Leishmania donovani (Ldo) (amastigotes, MHOM-ET-67/L82 strain) and Pf (intraerythrocytic forms, NF54 strain), and cytotoxicity tests against mammalian cells (L6-cell line from rat-skeletal myoblasts), were performed at the Swiss Tropical and Public Health Institute (Swiss TPH, Basel, Switzerland) according to established standard protocols.

[2] = tested on: Trypanosoma brucei rhodesiense (Tbr) (bloodstream trypomastigotes, STIB 900 strain); experiment: In vitro antitrypanosomal activity; type: cell-based; details: STIB 900 strain; for Tbr IC50: mean of n = 2 (fluctuation range) or * n = 3 (SD); for IC50: read-out: Tbr IC50 (in parentheses) (converted)
Description: as §1
as §2, with “protocols. […] Such a pattern of activity was also observed in other studies.” for “protocols.”

[3] = tested on: L6 rat skeletal myoblasts; experiment: Cytotoxicity against mammalian control cells; type: cell-based
Description: as §1, §2

[4] = tested on: Trypanosoma brucei rhodesiense (Tbr) (bloodstream trypomastigotes, STIB 900 strain); parameters: method as in PMID 29738470; details: cited from earlier work
[5] = tested on: Plasmodium falciparum (Pf) (intraerythrocytic forms, NF54 strain); parameters: method as in PMID 24838073; details: previous study; cited from earlier work

| Compound | Pf IC50 [1] [µg/mL] | IC50 [1] [nM] | Tbr IC50 [2] [µg/mL] | IC50 [2] [nM] | Cytotox. IC50 [3] [µg/mL] | IC50 [3] [nM] | in vitro activity against Tbr [4] | Cytotox. IC50 ([3]; L6 cell line, mean of n = 2 (fluctuation range) or * n = 3 (SD)) [µg/mL] | IC50 ([3]; L6 cell line, read-out: Cytotox. IC50 (in parentheses) (converted)) [nM] | in vitro activity against Pf [5] |
| --- | --- | --- | --- | --- | --- | --- | --- | --- | --- | --- |
| CN[C@@H](C)[C@H]1[C@H](O)C[C@@]2(C)[C@@H]3C=C[C@H]4C(C)(C)[C@@H](N(C)C)CC[C@@]45C[C@@]35CC[C@]12C [Compound 2, Cyclovirobuxeine-B] | 1.07 ± 0.11 | 2600 | 0.6 ± 0.03 | 1500 | 14.7 ± 3.1 | 35500 | highly active and selective | – | – | – |
| O-tigloylcyclovirobuxeine-B [Compound 1] | 0.52 ± 0.14 | 1050 | 1.6 ± 0.55 | 3200 | – | – | – | 9.4 ± 3.8 | 19000 | strong and selective in vitro activity |
